Consider 25 compounds from patent US11576947B2, “Oral composition and method” (Kunming Lanchie Dental Hospital, LTD, priority 2019, dated 2023).

For series [1] the following is noted: hydrogen peroxide not stabilized, cited from earlier work.
Series [2] can be described thus: Stability test in propylene glycol (Brilliant Blue color dissipation). Format: physicochemical. Further details: key: ++++: no color dissipation; +++: slightly dissipation; ++: obvious dissipation; +: totally dissipated.
Series [3] can be described thus: Stability test in aqueous system (Brilliant Blue color dissipation). Format: physicochemical. Further details: key: ++++: no color dissipation; +++: slightly dissipation; ++: obvious dissipation; +: totally dissipated.
Series [4] can be described thus: System stability evaluation: compatibility of ingredients with peroxide source and the system. The following applies: for Effect on peroxide and system stability: summary of testing of Tables 2 and 3.
The mark [5] stands for this setting: propylene glycol, 2.76% carbamide peroxide, 0.002% Brilliant Blue, compound amount 0.1%, 60 days, room temperature.
Where [6] appears, read: water, 2.76% carbamide peroxide, 0.002% Brilliant Blue, compound amount 0.1%, 60 days, room temperature.
Setting [7] is: propylene glycol, 2.76% carbamide peroxide, 0.002% Brilliant Blue, compound amount 15%, 60 days, room temperature.
Setting [8] is: water, 2.76% carbamide peroxide, 0.002% Brilliant Blue, compound amount 15%, 60 days, room temperature.
The mark [9] stands for this setting: propylene glycol, 2.76% carbamide peroxide, 0.002% Brilliant Blue, compound amount 1%, 60 days, room temperature.
Where [10] appears, read: water, 2.76% carbamide peroxide, 0.002% Brilliant Blue, compound amount 1%, 60 days, room temperature.
Where [11] appears, read: propylene glycol, 2.76% carbamide peroxide, 0.002% Brilliant Blue, compound amount 2%, 60 days, room temperature.
Setting [12] is: water, 2.76% carbamide peroxide, 0.002% Brilliant Blue, compound amount 2%, 60 days, room temperature.

Read-outs that look alike come from different tables or passages of the source.

`[Al+3]` [Al (III)]: the “Oxygen lost % (24 hr, 100 C.)” value in series [1] (metal ion added 10 ppm) is listed as 2%.

`O=P([O-])([O-])OP(=O)([O-])[O-].[Ca+2].[Ca+2]` [Calcium pyrophosphate]: the “Color (color fading grade)” value in series [2] and in series [3] was “+” in each case.

With `N=C(NCCCCCCNC(=N)NC(=N)Nc1ccc(Cl)cc1)NC(=N)Nc1ccc(Cl)cc1` [Chlorhexydine, reference compound], the “Color (color fading grade)” value in series [2] (setting [5]) is “++”; in series [3] (setting [6]) it was “+”.

As for `[Cu+2]` [Cu(II)], the “Oxygen lost % (24 hr, 100 C.)” value in series [1] (metal ion added 0.01 ppm) is listed as 24%.

Regarding `O=C([O-])CN(CCN(CC(=O)[O-])CC(=O)O)CC(=O)O.[Na+].[Na+]` [Disodium EDTA], the “Color (color fading grade)” value in series [2] (setting [5]) and in series [3] (setting [6]) was “+++” in each case.

Regarding `[Fe+3]` [Fe(III)], in series [1] (metal ion added 10 ppm), the “Oxygen lost % (24 hr, 100 C.)” value is 15%.

Regarding `OCC(O)CO` [Glycerin], the “Color (color fading grade)” value in series [2] (propylene glycol, 2.76% carbamide peroxide, 0.002% Brilliant Blue, compound amount 20%, 60 days, room temperature) is “++”; in series [3] (water, 2.76% carbamide peroxide, 0.002% Brilliant Blue, compound amount 20%, 60 days, room temperature), “+”.

`CCCCCCCCCCCCCCCC[n+]1ccccc1.[Cl-]` [Hexadecylpyridinium Chloride, Hexadecylpyridinium chloride, reference compound]: the “Color (color fading grade)” value in series [2] (setting [5]) is given as “++”; in series [3] (setting [6]), “+”.

Regarding `CC1CCC(C(C)C)C(O)C1` (centres unmarked) [Menthol], the “Compatibility with the system (cationic biocide and peroxide source)” value (from here on “Compatibility with the system”) in series [4] is “compatible”. In addition, the “Color (color fading grade)” value in series [2] (setting [5]) and in series [3] (setting [6]) was “+++” each time.

With `CCCCCCCCCC[N+](C)(C)CCCCCCCCCC.O=C1CC[C@@H](C(=O)[O-])N1` [PODA, Proline, 5-oxo-, ion(1-), N-decyl-N,N-dimethyl-1-decanaminium (1:1)], the “Color (color fading grade)” value in series [2] (setting [5]) is listed as “++”; in series [3] (setting [6]), “+”.

On to `O=C([O-])[O-].[Ca+2]` [Precipitate calcium carbonate], for which, in series [4], the “Compatibility with the system” value is given as “not compatible”; the “Effect on peroxide and system stability” value is “activate the peroxide and make the system unstable”. Moreover, the “Color (color fading grade)” value in series [2] (setting [7]) is “+”. The “Color (color fading grade)” value in series [3] (setting [8]) is reported as “+”.

For `CCCCCCCCCCCCOS(=O)(=O)[O-].[Na+]` [Sodium Dodecyl Sulfate], in series [4], the “Compatibility with the system” value is given as “incompatible”; the “Effect on peroxide and system stability” value is “activate the peroxide and make the system unstable”. Further, the “Color (color fading grade)” value in series [2] (setting [9]) is listed as “+”. Moreover, the “Color (color fading grade)” value in series [3] (setting [10]) is on record as “+”.

Take `O=P([O-])(O)OP(=O)([O-])O.[Na+].[Na+]` [Sodium acid pyrophosphate]: the “Color (color fading grade)” value in series [2] (setting [9]) and in series [3] (setting [10]) was “++” in each case.

Consider `[F-].[Na+]` [Sodium fluoride], for which the entries for the “Color (color fading grade)” value in series [2] (setting [5]) and in series [3] (setting [6]) were “+++” and “++”, respectively.

For `O=C1NS(=O)(=O)c2ccccc21.[Na]` [Sodium saccharin], the “Compatibility with the system” value in series [4] was “compatible”. For the same compound, the “Color (color fading grade)” value is recorded as “+++” in series [2] and “++” in series [3].

Regarding `O=P(O)(O)OP(=O)(O)OP(=O)(O)O` [Sodium tripolyphosphate], in series [4], the “Compatibility with the system” value is reported as “not compatible”. The “Color (color fading grade)” value in series [2] (propylene glycol, 2.76% carbamide peroxide, 0.002% Brilliant Blue, compound amount 5%, 60 days, room temperature) was “+”.

`OC[C@@H](O)[C@@H](O)[C@H](O)[C@@H](O)CO` [Sorbitol]: the “Color (color fading grade)” value was “+” in series [2] (propylene glycol, 2.76% carbamide peroxide, 0.002% Brilliant Blue, compound amount 60%, 60 days, room temperature) and “+” in series [3] (water, 2.76% carbamide peroxide, 0.002% Brilliant Blue, compound amount 60%, 60 days, room temperature).

As for `OC[C@H]1O[C@H](O[C@]2(CCl)O[C@H](CCl)[C@@H](O)[C@@H]2O)[C@H](O)[C@@H](O)[C@H]1Cl` [Sucralose], the “Compatibility with the system” value in series [4] is reported as “compatible”. The “Color (color fading grade)” value in series [2] (propylene glycol, 2.76% carbamide peroxide, 0.002% Brilliant Blue, compound amount 0.5%, 60 days, room temperature) was “+++”; in series [3] (water, 2.76% carbamide peroxide, 0.002% Brilliant Blue, compound amount 0.5%, 60 days, room temperature), “++”.

Regarding `O=P([O-])([O-])OP(=O)([O-])[O-].[Na+].[Na+].[Na+].[Na+]` [Tetrasodium pyrophosphate], the “Compatibility with the system” value in series [4] was “not compatible”. The “Color (color fading grade)” value in series [2] and in series [3] was “+” in each case.

Turning to `[Zn+2]` [Zn(II)], the “Oxygen lost % (24 hr, 100 C.)” value in series [1] (metal ion added 10 ppm) was 10%.

Turning to Cocamidopropyl betaine, the “Color (color fading grade)” value in series [2] (setting [11]) and in series [3] (setting [12]) was “++++” each time.

On to Fatty Alcohol Polyoxyethylene Ether 9, for which, in series [4], the “Compatibility with the system” value was “compatible”. The “Color (color fading grade)” value in series [2] (setting [11]) and in series [3] (setting [12]) was “+++” throughout.

Lauryl glucoside: the “Color (color fading grade)” value in series [2] (setting [11]) and in series [3] (setting [12]) was “+” in each case.

Turning to Natural calcium carbonate, the “Compatibility with the system” value in series [4] is “not compatible”. The “Color (color fading grade)” value in series [2] (setting [7]) and in series [3] (setting [8]) was “+” throughout.

Take Sucrose fatty acid ester: the “Color (color fading grade)” value in series [2] (setting [9]) and in series [3] (setting [10]) was “+” in each case.
